Usually fraction remaining stands for the share of the starting amount still present when the sample was taken. Low values mean more turnover, high ones less turnover.

The subject of data set [1] is bovine anterior pituitary cell culture. In kind it is cell-based.
The nature of data set [2]: proteolytic stability in bovine plasma (HPLC, modified Frohman method). The settings on record: bovine plasma.
The mark [3] stands for this setting: another assay, potency as a fraction of bGRF(1-44)NH₂.

Where two headings read alike, the source gives them in different places. Where a SMILES comes first, the peptide text is derived from it. [ ]: non-standard residue; d: D form. The star is where a group is joined. Desaminotyrosyl = O=C(CCc1ccc(O)cc1)*; Cya = N[C@@H](CS(=O)(=O)O)C(=O)O; X1 = O=C(Cc1ccc(O)cc1)*

In the case of `CC[C@H](C)[C@H](NC(=O)[C@H](C)NC(=O)[C@H](CS(=O)(=O)O)NC(=O)[C@H](C)NC(=O)CCc1ccc(O)cc1)C(=O)N[C@@H](Cc1ccccc1)C(=O)N[C@H](C(=O)N[C@@H](CO)C(=O)N[C@@H](CO)C(=O)N[C@@H](Cc1ccc(O)cc1)C(=O)N[C@@H](CCCNC(=N)N)C(=O)N[C@@H](CCCNC(=N)N)C(=O)N[C@H](C(=O)N[C@@H](CC(C)C)C(=O)N[C@@H](C)C(=O)N[C@@H](CCC(N)=O)C(=O)N[C@@H](CC(C)C)C(=O)N[C@@H](CO)C(=O)N[C@@H](C)C(=O)N[C@@H](CCCNC(=N)N)C(=O)N[C@@H](CCCNC(=N)N)C(=O)N[C@@H](CC(C)C)C(=O)N[C@@H](CC(C)C)C(=O)N[C@@H](CCC(N)=O)C(=O)N[C@@H](CC(=O)O)C(=O)N[C@H](C(=O)N[C@@H](CC(C)C)C(=O)N[C@@H](CO)C(=O)N[C@@H](CCCNC(=N)N)C(=O)N[C@@H](CCC(N)=O)C(=O)N[C@@H](CCC(N)=O)C(=O)NCC(N)=O)[C@@H](C)CC)C(C)C)[C@@H](C)O` [Compound 12, DesaminoTyr¹, Cya³, Ser⁸, Arg¹², Ala¹⁵, Leu²⁷, Ser²⁸, bGRF(1-32)NH₂] (Desaminotyrosyl-A[Cya]AIFTSSYRRVLAQLSARRLLQDILSRQQG-NH2), the “the potency of bGRF(1-44)NH₂” value in data set [1] (setting [3]) amounted to 0.54. The same compound came in with an amount remaining at 1 h in data set [2] of 67%.
On to `CC[C@H](C)[C@H](NC(=O)[C@H](C)NC(=O)[C@H](CS(=O)(=O)O)NC(=O)[C@H](C)NC(=O)CCc1ccc(O)cc1)C(=O)N[C@@H](Cc1ccccc1)C(=O)N[C@H](C(=O)N[C@@H](CC(N)=O)C(=O)N[C@@H](CO)C(=O)N[C@@H](Cc1ccc(O)cc1)C(=O)N[C@@H](CCCNC(=N)N)C(=O)N[C@@H](CCCCN)C(=O)N[C@H](C(=O)N[C@@H](CC(C)C)C(=O)NCC(=O)N[C@@H](CCC(N)=O)C(=O)N[C@@H](CC(C)C)C(=O)N[C@@H](CO)C(=O)N[C@@H](C)C(=O)N[C@@H](CCCNC(=N)N)C(=O)N[C@@H](CCCCN)C(=O)N[C@@H](CC(C)C)C(=O)N[C@@H](CC(C)C)C(=O)N[C@@H](CCC(N)=O)C(=O)N[C@@H](CC(=O)O)C(=O)N[C@H](C(=O)N[C@@H](CC(C)C)C(=O)N[C@@H](CC(N)=O)C(=O)N[C@@H](CCCNC(=N)N)C(=O)N[C@@H](CCC(N)=O)C(=O)N[C@@H](CCC(N)=O)C(=O)NCC(N)=O)[C@@H](C)CC)C(C)C)[C@@H](C)O` [Compound 5, Desamino-Tyr¹, Cya³, Leu²⁷-bGRF(1-32)NH₂] (Desaminotyrosyl-A[Cya]AIFTNSYRKVLGQLSARKLLQDILNRQQG-NH2), for which the “the potency of bGRF(1-44)NH₂” value in data set [1] worked out at 1.01. This compound had a share remaining at 1 h in data set [2] of 76%.
For the compound `CC[C@H](C)[C@H](NC(=O)[C@H](C)NC(=O)[C@H](CC(=O)O)NC(=O)[C@H](C)NC(=O)Cc1ccc(O)cc1)C(=O)N[C@@H](Cc1ccccc1)C(=O)N[C@H](C(=O)N[C@@H](CO)C(=O)N[C@@H](CO)C(=O)N[C@@H](Cc1ccc(O)cc1)C(=O)N[C@@H](CCCNC(=N)N)C(=O)N[C@@H](CCCNC(=N)N)C(=O)N[C@H](C(=O)N[C@@H](CC(C)C)C(=O)N[C@@H](C)C(=O)N[C@@H](CCC(N)=O)C(=O)N[C@@H](CC(C)C)C(=O)N[C@@H](CO)C(=O)N[C@@H](C)C(=O)N[C@@H](CCCNC(=N)N)C(=O)N[C@@H](CCCNC(=N)N)C(=O)N[C@@H](CC(C)C)C(=O)N[C@@H](CC(C)C)C(=O)N[C@@H](CCC(N)=O)C(=O)N[C@@H](CS(=O)(=O)O)C(=O)N[C@H](C(=O)N[C@@H](CC(C)C)C(=O)N[C@@H](CO)C(=O)N[C@@H](CCCNC(=N)N)C(=O)N[C@@H](CCC(N)=O)C(=O)N[C@@H](CCC(N)=O)C(=O)NCC(N)=O)[C@@H](C)CC)C(C)C)[C@@H](C)O` [Compound 15, Desamino PHPG¹, Ser⁸, Arg¹², Ala¹⁵, Cya²⁵, Leu²⁷, Ser²⁸, bGRF(1-32)NH₂] (X1-ADAIFTSSYRRVLAQLSARRLLQ[Cya]ILSRQQG-NH2), the “the potency of bGRF(1-44)NH₂” value in data set [1] (setting [3]) is listed as 0.97. Also, the share remaining at 1 h in data set [2] is 65%.
Consider `CC[C@H](C)[C@H](NC(=O)[C@H](C)NC(=O)[C@H](CS(=O)(=O)O)NC(=O)[C@@H](C)NC(=O)CCc1ccc(O)cc1)C(=O)N[C@@H](Cc1ccccc1)C(=O)N[C@H](C(=O)N[C@@H](CC(N)=O)C(=O)N[C@@H](CO)C(=O)N[C@@H](Cc1ccc(O)cc1)C(=O)N[C@@H](CCCNC(=N)N)C(=O)N[C@@H](CCCCN)C(=O)N[C@H](C(=O)N[C@@H](CC(C)C)C(=O)NCC(=O)N[C@@H](CCC(N)=O)C(=O)N[C@@H](CC(C)C)C(=O)N[C@@H](CO)C(=O)N[C@@H](C)C(=O)N[C@@H](CCCNC(=N)N)C(=O)N[C@@H](CCCCN)C(=O)N[C@@H](CC(C)C)C(=O)N[C@@H](CC(C)C)C(=O)N[C@@H](CCC(N)=O)C(=O)N[C@@H](CC(=O)O)C(=O)N[C@H](C(=O)N[C@@H](CC(C)C)C(=O)N[C@@H](CC(N)=O)C(=O)N[C@@H](CCCNC(=N)N)C(=O)N[C@@H](CCC(N)=O)C(=O)N[C@@H](CCC(N)=O)C(=O)NCC(N)=O)[C@@H](C)CC)C(C)C)[C@@H](C)O` [Compound 6, Desamino-Tyr¹, D-Ala²,, Cya³, Leu²⁷-bGRF(1-32)NH₂] (Desaminotyrosyl-[dA][Cya]AIFTNSYRKVLGQLSARKLLQDILNRQQG-NH2), for which the “the potency of bGRF(1-44)NH₂” value in data set [1] is recorded as 0.26. Also, the amount remaining at 1 h in data set [2] amounted to 51%.
Regarding `CC[C@H](C)[C@H](NC(=O)[C@H](C)NC(=O)[C@H](CC(=O)O)NC(=O)[C@H](C)NC(=O)CCc1ccc(O)cc1)C(=O)N[C@@H](Cc1ccccc1)C(=O)N[C@H](C(=O)N[C@@H](CO)C(=O)N[C@@H](CO)C(=O)N[C@@H](Cc1ccc(O)cc1)C(=O)N[C@@H](CCCNC(=N)N)C(=O)N[C@@H](CCCNC(=N)N)C(=O)N[C@H](C(=O)N[C@@H](CC(C)C)C(=O)N[C@@H](C)C(=O)N[C@@H](CCC(N)=O)C(=O)N[C@@H](CC(C)C)C(=O)N[C@@H](CO)C(=O)N[C@@H](C)C(=O)N[C@@H](CCCNC(=N)N)C(=O)N[C@@H](CCCNC(=N)N)C(=O)N[C@@H](CC(C)C)C(=O)N[C@@H](CC(C)C)C(=O)N[C@@H](CCC(N)=O)C(=O)N[C@@H](CS(=O)(=O)O)C(=O)N[C@H](C(=O)N[C@@H](CC(C)C)C(=O)N[C@@H](CO)C(=O)N[C@@H](CCCNC(=N)N)C(=O)N[C@@H](CCC(N)=O)C(=O)N[C@@H](CCC(N)=O)C(=O)NCC(N)=O)[C@@H](C)CC)C(C)C)[C@@H](C)O` [Compound 14, DesaminoTyr¹, Ser⁸, Arg¹², Ala¹⁵, Cya²⁵, Leu²⁷, Ser²⁸, bGRF(1-32)NH₂] (Desaminotyrosyl-ADAIFTSSYRRVLAQLSARRLLQ[Cya]ILSRQQG-NH2), in data set [1] (setting [3]), the “the potency of bGRF(1-44)NH₂” value is 1.21. The compound also registered a fraction remaining at 1 h in data set [2] of 65%.
In the case of “DesaminoTyr¹, Cya³, Ser⁸, Arg¹², Ala¹⁵, Arg²¹, Leu²⁷, Ser²⁸, Hse³³ bGRF(1-33)lactone [Compound 20]”, the “potency (in words)” value in data set [1] (contemplated, compound not tested) is recorded as “high potency”.
Take `CC[C@H](C)[C@H](NC(=O)[C@H](C)NC(=O)[C@H](CS(=O)(=O)O)NC(=O)[C@H](C)NC(=O)[C@@H](N)Cc1ccc(O)cc1)C(=O)N[C@@H](Cc1ccccc1)C(=O)N[C@H](C(=O)N[C@@H](CC(N)=O)C(=O)N[C@@H](CO)C(=O)N[C@@H](Cc1ccc(O)cc1)C(=O)N[C@@H](CCCNC(=N)N)C(=O)N[C@@H](CCCCN)C(=O)N[C@H](C(=O)N[C@@H](CC(C)C)C(=O)NCC(=O)N[C@@H](CCC(N)=O)C(=O)N[C@@H](CC(C)C)C(=O)N[C@@H](CO)C(=O)N[C@@H](C)C(=O)N[C@@H](CCCNC(=N)N)C(=O)N[C@@H](CCCCN)C(=O)N[C@@H](CC(C)C)C(=O)N[C@@H](CC(C)C)C(=O)N[C@@H](CCC(N)=O)C(=O)N[C@@H](CS(=O)(=O)O)C(=O)N[C@H](C(=O)N[C@@H](CC(C)C)C(=O)N[C@@H](CC(N)=O)C(=O)N[C@@H](CCCNC(=N)N)C(=O)N[C@@H](CCC(N)=O)C(=O)N[C@@H](CCC(N)=O)C(=O)NCC(N)=O)[C@@H](C)CC)C(C)C)[C@@H](C)O` [Compound 2, Cya^3,25, Leu²⁷bGRF(1-32)NH₂] (H-YA[Cya]AIFTNSYRKVLGQLSARKLLQ[Cya]ILNRQQG-NH2): the “the potency of bGRF(1-44)NH₂” value in data set [1] was 0.11.
Regarding `CC[C@H](C)[C@H](NC(=O)[C@H](C)NC(=O)[C@H](CS(=O)(=O)O)NC(=O)[C@@H](C)NC(=O)CCc1ccc(O)cc1)C(=O)N[C@@H](Cc1ccccc1)C(=O)N[C@H](C(=O)N[C@@H](CC(N)=O)C(=O)N[C@@H](CO)C(=O)N[C@@H](Cc1ccc(O)cc1)C(=O)N[C@@H](CCCNC(=N)N)C(=O)N[C@@H](CCCCN)C(=O)N[C@H](C(=O)N[C@@H](CC(C)C)C(=O)N[C@@H](C)C(=O)N[C@@H](CCC(N)=O)C(=O)N[C@@H](CC(C)C)C(=O)N[C@@H](CO)C(=O)N[C@@H](C)C(=O)N[C@@H](CCCNC(=N)N)C(=O)N[C@@H](CCCCN)C(=O)N[C@@H](CC(C)C)C(=O)N[C@@H](CC(C)C)C(=O)N[C@@H](CCC(N)=O)C(=O)N[C@@H](CC(=O)O)C(=O)N[C@H](C(=O)N[C@@H](CC(C)C)C(=O)N[C@@H](CC(N)=O)C(=O)N[C@@H](CCCNC(=N)N)C(=O)N[C@@H](CCC(N)=O)C(=O)N[C@@H](CCC(N)=O)C(=O)NCC(N)=O)[C@@H](C)CC)C(C)C)[C@@H](C)O` [Compound 10, Desamino-Tyr¹, D-Ala², Cya³, Ala¹⁵, Leu²⁷-bGRF(1-32)NH₂] (Desaminotyrosyl-[dA][Cya]AIFTNSYRKVLAQLSARKLLQDILNRQQG-NH2), the “the potency of bGRF(1-44)NH₂” value in data set [1] turned out to be 1.40.

Values taken from patent publication EP0326418A1, “GRF analogs” (THE UPJOHN COMPANY, priority 1988, dated 1989).
